Source: paper PMC4741719, “Acquisition of a single EZH2 D1 domain mutation confers acquired resistance to EZH2-targeted inhibitors” (Oncotarget, 2015)
Like-named read-outs stand apart in the source and are kept apart here.

Tests used:
[1] = test system: DLBCL and rhabdoid INI1-deficient patients; parameters: method as in earlier work; details: phase 1 clinical trial, monotherapy; cited from earlier work
[2] = test system: Pfeiffer cells (Parental); assay: Viability assay (Cell-Titer-Glo, 6 days), parental Pfeiffer cells; type: cell-based; details: Homo sapiens
E-100 Pfeiffer cells = assay: Viability assay, EPZ-6438-resistant E-100 Pfeiffer cells; type: cell-based; details: Homo sapiens, read-out: IC50 cell viability
E-200 Pfeiffer cells = assay: Viability assay, EPZ-6438-resistant E-200 Pfeiffer cells; type: cell-based; details: Homo sapiens, read-out: IC50 cell viability
[3] = test system: H3K27me3 in Pfeiffer cells (Parental); assay: Cellular H3K27me3 AlphaLISA, parental Pfeiffer cells; type: cell-based; details: Homo sapiens, Figure 3B
Method: Cells were plated at 500 cells/well in 10% DMEM, 50 uL/well in 384 well plates. […] DMSO (0.1%) was used as a vehicle control. Plates were incubated for 72 hours at 37°C. […] Plates were read using AlphaLISA protocol on Envision (Perkin Elmer).

[4] = test system: H3K27me3 in E-200 Pfeiffer cells; assay: Cellular H3K27me3 AlphaLISA, E-200 Pfeiffer cells; type: cell-based; details: Homo sapiens; Pfeiffer E-200; Figure 3B
Method: Cells were plated at 500 cells/well in 10% DMEM, 50 uL/well in 384 well plates. […] DMSO (0.1%) was used as a vehicle control. Plates were incubated for 72 hours at 37°C. […] Plates were read using AlphaLISA protocol on Envision (Perkin Elmer). […] Pfeiffer cells were treated overnight with 100 μg/mL of N-ethyl-N-nitrosourea (ENU; Sigma Aldrich, St. […] After 7 days, cells were dosed again with fresh compound and grown until outgrowth (3 to 4 weeks). […] Ion semiconductor sequencing (Ion Torrent) and single molecule real time sequencing (PacBio) were performed at Molecular MD and Expression analysis (Quintiles), respectively.

[5] = test system: Pfeiffer cells stably-expressing Y111D/A677G EZH2 mutant; assay: Viability assay, Pfeiffer cells stably-expressing Y111D/A677G EZH2; details: Homo sapiens, read-out: IC50 cell viability
[6] = test system: Pfeiffer cells stably-expressing Y111D/Y641F EZH2 mutant; assay: Viability assay, Pfeiffer cells stably-expressing Y111D/Y641F EZH2
[7] = test system: Pfeiffer cells stably expressing Y111D/A677G/H689A; assay: Viability assay, Pfeiffer cells stably expressing Y111D/A677G/H689A EZH2; details: Homo sapiens, read-out: IC50 cell viability
[8] = test system: H3K27me3 in Pfeiffer cells stably-expressing Y111D/A677G EZH2 mutant; assay: Cellular H3K27me3 AlphaLISA, Pfeiffer cells stably-expressing Y111D/A677G EZH2; details: Homo sapiens, read-out: IC50 H3K27me3

SMILES | clinical response [1] | IC50 ([2]; Parental Pfeiffer, Figure 1C, three independent experiments) [nM] | IC50 ([2]; Pfeiffer Parental, Figure 3C) [nM] | IC50 ([2]; Pfeiffer Parental, Figure 4B) [nM] | IC50 (E-100 Pfeiffer cells; E-100, Unwash, Figure 1E) [nM] | IC50 (E-100 Pfeiffer cells; E-100, Wash 8 weeks (drug withdrawal), Figure 1E) [nM] | IC50 (E-100 Pfeiffer cells; E-100 Pfeiffer, Figure 1C) [nM] | IC50 (E-200 Pfeiffer cells; E-200, Unwash, Figure 1E) [nM] | IC50 (E-200 Pfeiffer cells; E-200, Wash 8 weeks (drug withdrawal), Figure 1E) [nM] | IC50 (E-200 Pfeiffer cells; E-200 Pfeiffer, Figure 1C) [nM] | IC50 [3] [nM] | IC50 [4] [nM] | IC50 [5] [nM] | IC50 ([6]; Homo sapiens, Pfeiffer, read-out: IC50 cell viability) [nM] | increase in IC50 values ([6]; Y111D/Y641F, both growth and H3K27 tri-methylation) | IC50 [7] [nM] | IC50 [8] [nM]
CCN(c1cc(-c2ccc(CN3CCOCC3)cc2)cc(C(=O)NCc2c(C)cc(C)[nH]c2=O)c1C)C1CCOCC1 [EPZ-6438] | durable objective responses |  |  |  |  |  |  |  |  |  |  |  |  |  |  |  | 
CC[C@H](C)n1cc(C)c2c(C(=O)NCc3c(C)cc(C)[nH]c3=O)cc(-c3ccc(N4CCNCC4)nc3)cc21 [GSK126] |  | 23 ± 5 | 33 ± 7 | 30 ± 5 | 4030 ± 370 | 1220 ± 89 | 3960 ± 1040 | 3150 ± 508 | 2010 ± 1560 | 3980 ± 994 | 36 ± 27 | > 10000 | 2670 ± 1370 | 111 ± 35 | 3–4 fold | 25 ± 9 | 5000 ± 1590
